Data taken from the NIST ThermoML archive (doi:10.1021/je200651r).
Numbers after ± are expanded uncertainties.

What was measured:
[1] = refractive index (Na D-line) (dimensionless); conditions: 298.15 K; 101.33 kPa; Liquid; Standard Abbe refractometry
[2] = Liquid, Manometric method

ClCCCCl [1,3-dichloropropane]
refractive index [1]: 1.4462 ± 0.0008
vapor or sublimation pressure ([2]; 343.15 K): 18.31 ± 0.19 kPa
vapor or sublimation pressure ([2]; 353.15 K): 26.84 ± 0.22 kPa
vapor or sublimation pressure ([2]; 363.15 K): 38.65 ± 0.27 kPa

CC[N+](=O)[O-] [nitroethane]
refractive index [1]: 1.3898 ± 0.0009
vapor or sublimation pressure ([2]; 343.15 K): 22.46 ± 0.23 kPa
vapor or sublimation pressure ([2]; 353.15 K): 32.84 ± 0.29 kPa
vapor or sublimation pressure ([2]; 363.15 K): 47.13 ± 0.37 kPa

C[N+](=O)[O-] [nitromethane]
refractive index [1]: 1.3794 ± 0.0009
vapor or sublimation pressure ([2]; 343.15 K): 34.93 ± 0.31 kPa
vapor or sublimation pressure ([2]; 353.15 K): 50.14 ± 0.41 kPa
vapor or sublimation pressure ([2]; 363.15 K): 70.81 ± 0.53 kPa
